# Results: patent EP4635500A1, “THERAPEUTIC AGENT FOR BACTERIAL INFECTION” (Sumitomo Pharma Co., Ltd., priority 2022, dated 2024)
# What was measured:
# [1] = test system: Metallo-β-lactamase producing strains (N = 27); assay: MIC50/MIC90 for carbapenemase-producing isolates (Example 5, Table 6); assay type: cell-based; parameters: MIC50: unit not given here
# P. aeruginosa = assay: MIC, broth microdilution, CDC/FDA Antibiotic Resistance Isolate Bank (Example 7, Tables 10, 15); assay type: cell-based
# [2] = 26 metallo-carbapenemase-producing P. aeruginosa strains, β-lactamase inhibitor µg/mL in parentheses
# [3] = 96 strains of P. aeruginosa, β-lactamase inhibitor µg/mL in parentheses
substance,measurement,setting,value
colistin,MIC50,"[1]; Metallo-β-lactamase (N = 27): IMP-1 (12), IMP-6 (3), IMP-34 (1), NDM-1 (8), NDM-6 (1), VIM-1 (2)",0.25
same,MIC90,"[1]; metallo-β-lactamase-producing strains, combination: Compound A at a fixed concentration of 4 µg/mL",1 µg/mL
same,MIC against 26 metallo-carbapenemase-producing strains MIC50,P. aeruginosa; [2],1 µg(mL)
same,MIC against 26 metallo-carbapenemase-producing strains MIC80,P. aeruginosa; [2],1 µg(mL)
same,MIC against 26 metallo-carbapenemase-producing strains MIC90,P. aeruginosa; [2],1 µg(mL)
same,MIC against 26 metallo-carbapenemase-producing strains MICrange,P. aeruginosa; [2],0.5 - 2 µg(mL)
same,MIC against 96 strains of P. aeruginosa MIC50,P. aeruginosa; [3],1 µg(mL)
same,MIC against 96 strains of P. aeruginosa MIC80,P. aeruginosa; [3],1 µg(mL)
same,MIC against 96 strains of P. aeruginosa MIC90,P. aeruginosa; [3],1 µg(mL)
same,MIC against 96 strains of P. aeruginosa MICrange,P. aeruginosa; [3],0.25 - 2 µg(mL)
same,MIC,"P. aeruginosa; P. aeruginosa KUB No. 579, AR Bank # 447",1 µg/mL
same,MIC,"P. aeruginosa; P. aeruginosa KUB No. 5083, AR Bank # 250",1 µg/mL
same,MIC,"P. aeruginosa; P. aeruginosa KUB No. 5551, AR Bank # 54",2 µg/mL
same,MIC,"P. aeruginosa; P. aeruginosa KUB No. 5561, AR Bank # 64",1 µg/mL
same,MIC,"P. aeruginosa; P. aeruginosa KUB No. 5587, AR Bank # 90",1 µg/mL
same,MIC,"P. aeruginosa; P. aeruginosa KUB No. 5589, AR Bank # 92",1 µg/mL
same,MIC,"P. aeruginosa; P. aeruginosa KUB No. 5591, AR Bank # 94",1 µg/mL
same,MIC,"P. aeruginosa; P. aeruginosa KUB No. 5592, AR Bank # 95",1 µg/mL
same,MIC,"P. aeruginosa; P. aeruginosa KUB No. 5597, AR Bank # 100",1 µg/mL
same,MIC,"P. aeruginosa; P. aeruginosa KUB No. 5600, AR Bank # 103",1 µg/mL
same,MIC,"P. aeruginosa; P. aeruginosa KUB No. 5602, AR Bank # 105",1 µg/mL
same,MIC,"P. aeruginosa; P. aeruginosa KUB No. 5605, AR Bank # 108",1 µg/mL
same,MIC,"P. aeruginosa; P. aeruginosa KUB No. 5607, AR Bank # 110",1 µg/mL
same,MIC,"P. aeruginosa; P. aeruginosa KUB No. 5608, AR Bank # 111",1 µg/mL
same,MIC,"P. aeruginosa; P. aeruginosa KUB No. 5662, AR Bank # 229",1 µg/mL
same,MIC,"P. aeruginosa; P. aeruginosa KUB No. 5663, AR Bank # 230",1 µg/mL
same,MIC,"P. aeruginosa; P. aeruginosa KUB No. 5664, AR Bank # 231",1 µg/mL
same,MIC,"P. aeruginosa; P. aeruginosa KUB No. 5665, AR Bank # 232",1 µg/mL
same,MIC,"P. aeruginosa; P. aeruginosa KUB No. 5666, AR Bank # 23",1 µg/mL
same,MIC,"P. aeruginosa; P. aeruginosa KUB No. 5667, AR Bank # 234",1 µg/mL
same,MIC,"P. aeruginosa; P. aeruginosa KUB No. 5668, AR Bank # 235",0.5 µg/mL
same,MIC,"P. aeruginosa; P. aeruginosa KUB No. 5669, AR Bank # 236",1 µg/mL
same,MIC,"P. aeruginosa; P. aeruginosa KUB No. 5670, AR Bank # 237",0.5 µg/mL
same,MIC,"P. aeruginosa; P. aeruginosa KUB No. 5671, AR Bank # 238",1 µg/mL
same,MIC,"P. aeruginosa; P. aeruginosa KUB No. 5672, AR Bank # 239",1 µg/mL
same,MIC,"P. aeruginosa; P. aeruginosa KUB No. 5673, AR Bank # 240",1 µg/mL
same,MIC,"P. aeruginosa; P. aeruginosa KUB No. 5674, AR Bank # 241",1 µg/mL
same,MIC,"P. aeruginosa; P. aeruginosa KUB No. 5675, AR Bank # 242",0.5 µg/mL
same,MIC,"P. aeruginosa; P. aeruginosa KUB No. 5676, AR Bank # 243",1 µg/mL
same,MIC,"P. aeruginosa; P. aeruginosa KUB No. 5677, AR Bank # 244",1 µg/mL
same,MIC,"P. aeruginosa; P. aeruginosa KUB No. 5678, AR Bank # 245",1 µg/mL
same,MIC,"P. aeruginosa; P. aeruginosa KUB No. 5679, AR Bank # 246",0.5 µg/mL
same,MIC,"P. aeruginosa; P. aeruginosa KUB No. 5680, AR Bank # 247",0.5 µg/mL
same,MIC,"P. aeruginosa; P. aeruginosa KUB No. 5681, AR Bank # 248",1 µg/mL
same,MIC,"P. aeruginosa; P. aeruginosa KUB No. 5682, AR Bank # 249",0.5 µg/mL
same,MIC,"P. aeruginosa; P. aeruginosa KUB No. 5684, AR Bank # 251",0.5 µg/mL
same,MIC,"P. aeruginosa; P. aeruginosa KUB No. 5685, AR Bank # 252",1 µg/mL
same,MIC,"P. aeruginosa; P. aeruginosa KUB No. 5686, AR Bank # 253",1 µg/mL
same,MIC,"P. aeruginosa; P. aeruginosa KUB No. 5687, AR Bank # 254",1 µg/mL
same,MIC,"P. aeruginosa; P. aeruginosa KUB No. 5688, AR Bank # 255",1 µg/mL
same,MIC,"P. aeruginosa; P. aeruginosa KUB No. 5689, AR Bank # 256",0.5 µg/mL
same,MIC,"P. aeruginosa; P. aeruginosa KUB No. 5690, AR Bank # 257",1 µg/mL
same,MIC,"P. aeruginosa; P. aeruginosa KUB No. 5691, AR Bank # 258",0.5 µg/mL
same,MIC,"P. aeruginosa; P. aeruginosa KUB No. 5692, AR Bank # 259",1 µg/mL
same,MIC,"P. aeruginosa; P. aeruginosa KUB No. 5693, AR Bank # 260",1 µg/mL
same,MIC,"P. aeruginosa; P. aeruginosa KUB No. 5694, AR Bank # 261",1 µg/mL
same,MIC,"P. aeruginosa; P. aeruginosa KUB No. 5695, AR Bank # 262",1 µg/mL
same,MIC,"P. aeruginosa; P. aeruginosa KUB No. 5696, AR Bank # 263",0.5 µg/mL
same,MIC,"P. aeruginosa; P. aeruginosa KUB No. 5697, AR Bank # 264",1 µg/mL
same,MIC,"P. aeruginosa; P. aeruginosa KUB No. 5698, AR Bank # 265",1 µg/mL
same,MIC,"P. aeruginosa; P. aeruginosa KUB No. 5699, AR Bank # 266",1 µg/mL
same,MIC,"P. aeruginosa; P. aeruginosa KUB No. 5700, AR Bank # 267",1 µg/mL
same,MIC,"P. aeruginosa; P. aeruginosa KUB No. 5701, AR Bank # 268",1 µg/mL
same,MIC,"P. aeruginosa; P. aeruginosa KUB No. 5702, AR Bank # 269",1 µg/mL
same,MIC,"P. aeruginosa; P. aeruginosa KUB No. 5703, AR Bank # 270",1 µg/mL
same,MIC,"P. aeruginosa; P. aeruginosa KUB No. 5704, AR Bank # 271",1 µg/mL
same,MIC,"P. aeruginosa; P. aeruginosa KUB No. 5705, AR Bank # 272",1 µg/mL
same,MIC,"P. aeruginosa; P. aeruginosa KUB No. 5747, AR Bank # 351",1 µg/mL
same,MIC,"P. aeruginosa; P. aeruginosa KUB No. 5748, AR Bank # 352",0.5 µg/mL
same,MIC,"P. aeruginosa; P. aeruginosa KUB No. 5749, AR Bank # 353",0.5 µg/mL
same,MIC,"P. aeruginosa; P. aeruginosa KUB No. 5750, AR Bank # 354",1 µg/mL
same,MIC,"P. aeruginosa; P. aeruginosa KUB No. 5751, AR Bank # 355",1 µg/mL
same,MIC,"P. aeruginosa; P. aeruginosa KUB No. 5752, AR Bank # 356",0.5 µg/mL
same,MIC,"P. aeruginosa; P. aeruginosa KUB No. 5753, AR Bank # 357",1 µg/mL
same,MIC,"P. aeruginosa; P. aeruginosa KUB No. 5754, AR Bank # 358",1 µg/mL
same,MIC,"P. aeruginosa; P. aeruginosa KUB No. 5755, AR Bank # 359",1 µg/mL
same,MIC,"P. aeruginosa; P. aeruginosa KUB No. 5756, AR Bank # 360",1 µg/mL
same,MIC,"P. aeruginosa; P. aeruginosa KUB No. 5785, AR Bank # 439",0.5 µg/mL
same,MIC,"P. aeruginosa; P. aeruginosa KUB No. 5786, AR Bank # 440",1 µg/mL
same,MIC,"P. aeruginosa; P. aeruginosa KUB No. 5787, AR Bank # 441",0.5 µg/mL
same,MIC,"P. aeruginosa; P. aeruginosa KUB No. 5788, AR Bank # 443",1 µg/mL
same,MIC,"P. aeruginosa; P. aeruginosa KUB No. 5789, AR Bank # 444",1 µg/mL
same,MIC,"P. aeruginosa; P. aeruginosa KUB No. 5790, AR Bank # 445",1 µg/mL
same,MIC,"P. aeruginosa; P. aeruginosa KUB No. 5793, AR Bank # 449",1 µg/mL
same,MIC,"P. aeruginosa; P. aeruginosa KUB No. 5798, AR Bank # 455",0.25 µg/mL
same,MIC,"P. aeruginosa; P. aeruginosa KUB No. 5799, AR Bank # 456",1 µg/mL
same,MIC,"P. aeruginosa; P. aeruginosa KUB No. 5800, AR Bank # 457",0.5 µg/mL
same,MIC,"P. aeruginosa; P. aeruginosa KUB No. 5801, AR Bank # 458",0.5 µg/mL
same,MIC,"P. aeruginosa; P. aeruginosa KUB No. 5802, AR Bank # 459",0.5 µg/mL
same,MIC,"P. aeruginosa; P. aeruginosa KUB No. 5804, AR Bank # 862",1 µg/mL
same,MIC,"P. aeruginosa; P. aeruginosa KUB No. 5805, AR Bank # 863",1 µg/mL
same,MIC,"P. aeruginosa; P. aeruginosa KUB No. 5806, AR Bank # 864",1 µg/mL
same,MIC,"P. aeruginosa; P. aeruginosa KUB No. 5813, AR Bank # 508",0.0005 µg/mL
same,MIC,"P. aeruginosa; P. aeruginosa KUB No. 5814, AR Bank # 509",0.001 µg/mL
same,MIC,"P. aeruginosa; P. aeruginosa KUB No. 5815, AR Bank # 510",0.0005 µg/mL
same,MIC,"P. aeruginosa; P. aeruginosa KUB No. 5816, AR Bank # 511",0.0005 µg/mL
same,MIC,"P. aeruginosa; P. aeruginosa KUB No. 5817, AR Bank # 512",0.001 µg/mL
same,MIC,"P. aeruginosa; P. aeruginosa KUB No. 5818, AR Bank # 513",0.001 µg/mL
same,MIC,"P. aeruginosa; P. aeruginosa KUB No. 5819, AR Bank # 514",0.001 µg/mL
same,MIC,"P. aeruginosa; P. aeruginosa KUB No. 5820, AR Bank # 515",0.001 µg/mL
same,MIC,"P. aeruginosa; P. aeruginosa KUB No. 5821, AR Bank # 516",0.001 µg/mL
same,MIC,"P. aeruginosa; P. aeruginosa KUB No. 5823, AR Bank # 518",0.001 µg/mL
same,MIC,"P. aeruginosa; P. aeruginosa KUB No. 5831, AR Bank # 526",0.001 µg/mL
same,MIC,"P. aeruginosa; P. aeruginosa KUB No. 5832, AR Bank # 527",0.0005 µg/mL
same,MIC,"P. aeruginosa; P. aeruginosa KUB No. 5833, AR Bank # 528",0.001 µg/mL
same,MIC,"P. aeruginosa; P. aeruginosa KUB No. 5834, AR Bank # 529",0.001 µg/mL
